target: ASK1 kinase (Homo sapiens (Human), UniProt Q99683); experiment: RBC Kinase Assay (33P-ATP radiometric, myelin basic protein substrate); assay type: biochemical; details: 20 ng ASK1 kinase, MBP substrate, 120 min at room temperature, 1% DMSO
Description: Example B1. RBC Kinase Assay Protocol
Base Reaction buffer: 20 mM Hepes (pH 7.5), 10 mM MgCl2, 1 mM EGTA, 0.02% Brij35, 0.02 mg/ml BSA, 0.1 mM Na3VO4, 2 mM DTT, and 1% DMSO were used for the assay.
Myelin base protein (MPB) was prepared in freshly prepared Base Reaction Buffer. 20 ng of ASK1 kinase was delivered into the substrate solution and gently mixed. Compounds in DMSO were delivered into the kinase reaction mixture (final DMSO concentration 1%). Commercially available 33P-ATP was delivered into the reaction mixture to initiate the reaction. The kinase reaction was incubated for 120 min. at room temperature. Reactions were spotted onto P81 ion exchange paper (Whatman #3698-915). Filters were washed extensively in 0.75% Phosphoric acid. Radioactivity on filters was read, and IC50 values were determined.

Chain of ASK1 kinase (Q99683 whole entry): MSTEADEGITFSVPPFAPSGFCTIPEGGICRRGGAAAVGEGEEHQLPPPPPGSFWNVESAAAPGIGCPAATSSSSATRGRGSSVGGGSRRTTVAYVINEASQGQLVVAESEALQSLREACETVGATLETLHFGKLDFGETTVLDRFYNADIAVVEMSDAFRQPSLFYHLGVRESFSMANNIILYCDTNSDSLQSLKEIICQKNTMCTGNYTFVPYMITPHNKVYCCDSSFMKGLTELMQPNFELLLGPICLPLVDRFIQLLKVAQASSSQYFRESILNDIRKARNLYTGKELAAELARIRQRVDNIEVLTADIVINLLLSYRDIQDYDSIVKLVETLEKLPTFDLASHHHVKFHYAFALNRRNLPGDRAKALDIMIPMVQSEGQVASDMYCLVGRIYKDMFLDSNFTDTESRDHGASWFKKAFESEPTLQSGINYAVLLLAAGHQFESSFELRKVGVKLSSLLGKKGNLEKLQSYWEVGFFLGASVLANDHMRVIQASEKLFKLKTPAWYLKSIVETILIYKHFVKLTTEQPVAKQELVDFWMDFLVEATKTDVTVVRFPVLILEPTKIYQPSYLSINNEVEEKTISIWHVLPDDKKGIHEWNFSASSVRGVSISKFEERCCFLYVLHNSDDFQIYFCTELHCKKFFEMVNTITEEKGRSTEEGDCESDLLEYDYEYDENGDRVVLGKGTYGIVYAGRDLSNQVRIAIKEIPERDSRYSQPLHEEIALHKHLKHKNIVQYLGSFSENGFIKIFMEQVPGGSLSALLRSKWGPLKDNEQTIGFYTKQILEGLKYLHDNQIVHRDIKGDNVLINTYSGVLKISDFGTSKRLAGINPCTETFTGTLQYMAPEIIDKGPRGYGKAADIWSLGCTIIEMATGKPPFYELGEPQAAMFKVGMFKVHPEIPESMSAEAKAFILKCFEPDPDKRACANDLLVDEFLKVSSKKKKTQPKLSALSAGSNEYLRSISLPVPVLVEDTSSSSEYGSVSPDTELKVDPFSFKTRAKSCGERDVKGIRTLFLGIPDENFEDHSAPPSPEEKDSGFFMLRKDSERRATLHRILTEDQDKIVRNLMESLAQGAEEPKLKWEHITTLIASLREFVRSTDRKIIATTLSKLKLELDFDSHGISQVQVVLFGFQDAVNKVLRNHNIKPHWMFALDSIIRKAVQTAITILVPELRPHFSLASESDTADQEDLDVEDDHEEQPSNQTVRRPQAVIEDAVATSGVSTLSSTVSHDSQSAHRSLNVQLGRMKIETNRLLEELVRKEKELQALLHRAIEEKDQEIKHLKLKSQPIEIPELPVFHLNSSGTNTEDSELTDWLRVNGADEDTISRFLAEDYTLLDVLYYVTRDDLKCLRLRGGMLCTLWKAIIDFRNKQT

Row | Compound | IC50 [nM]
1 | O=C(Nc1cccc2c1OC[C@H](CF)n1cnnc1-2)c1cc(-n2cnc(C3CC3)c2)ccn1 [Example 33, (R)-4-(4-cyclopropyl-1H-imidazol-1-yl)-N-(5-(fluoromethyl)-5,6-dihydrobenzo[f][1,2,4]triazolo[4,3-d][1,4]oxazepin-8-yl)picolinamide] | 4.1
2 | Cc1cc(F)c(C(=O)Nc2cccc3c2O[C@H](C)Cn2cnnc2-3)cc1-n1cnc(C2CC2)c1 [Example 34, (R)-5-(4-cyclopropyl-1H-imidazol-1-yl)-2-fluoro-4-methyl-N-(6-methyl-5,6-dihydrobenzo[f][1,2,4]triazolo[4,3-d][1,4]oxazepin-8-yl)benzamide] | 4.1
3 | Cc1cc(F)c(C(=O)Nc2cccc3c2O[C@@H](C)Cn2cnnc2-3)cc1-n1cnc(C2CC2)c1 [Example 35, (S)-5-(4-cyclopropyl-1H-imidazol-1-yl)-2-fluoro-4-methyl-N-(6-methyl-5,6-dihydrobenzo[f][1,2,4]triazolo[4,3-d][1,4]oxazepin-8-yl)benzamide] | 2.5
4 | CC1(C)COc2c(NC(=O)c3cc(-n4cnc(C5CC5)c4)c(N4CCOCC4)cn3)cccc2-c2nncn21 [Example 36, 4-(4-cyclopropyl-1H-imidazol-1-yl)-N-(5,5-dimethyl-5,6-dihydrobenzo[f][1,2,4]triazolo[4,3-d][1,4]oxazepin-8-yl)-5-morpholinopicolinamide] | 5.6
5 | CC1(C)COc2c(NC(=O)c3cc(-n4cnc(C5CC5)c4)c(N4CCOCC4)cn3)cccc2-c2nnnn21 [Example 37, 4-(4-cyclopropyl-1H-imidazol-1-yl)-N-(5,5-dimethyl-5,6-dihydrobenzo[f]tetrazolo[1,5-d][1,4]oxazepin-8-yl)-5-morpholinopicolinamide] | 0.5
6 | C[C@H]1COc2c(NC(=O)c3cc(-n4cnc(C5CC5)c4)c(N4CCOCC4)cn3)cccc2-c2nncn21 [Example 38, (S)-4-(4-cyclopropyl-1H-imidazol-1-yl)-N-(5-methyl-5,6-dihydrobenzo[f][1,2,4]triazolo[4,3-d][1,4]oxazepin-8-yl)-5-morpholinopicolinamide] | 0.6
7 | C[C@@H]1COc2c(NC(=O)c3cc(-n4cnc(C5CC5)c4)c(N4CCOCC4)cn3)cccc2-c2nncn21 [Example 39, (R)-4-(4-cyclopropyl-1H-imidazol-1-yl)-N-(5-methyl-5,6-dihydrobenzo[f][1,2,4]triazolo[4,3-d][1,4]oxazepin-8-yl)-5-morpholinopicolinamide] | 5.5
8 | Cc1cc(F)c(C(=O)Nc2cccc3c2OCCn2nncc2-3)cc1-n1cnc(C2CC2)c1 [Example 40, 5-(4-cyclopropyl-1H-imidazol-1-yl)-N-(5,6-dihydrobenzo[f][1,2,3]triazolo[1,5-d][1,4]oxazepin-8-yl)-2-fluoro-4-methylbenzamide] | 0.5
9 | Cc1cc(F)c(C(=O)Nc2cccc3c2OCCn2cncc2-3)cc1-n1cnc(C2CC2)c1 [Example 41, 5-(4-cyclopropyl-1H-imidazol-1-yl)-N-(5,6-dihydrobenzo[f]imidazo[1,5-d][1,4]oxazepin-8-yl)-2-fluoro-4-methylbenzamide] | 5.7
10 | Cc1cc(F)c(C(=O)Nc2cccc3c2O[C@@H](C)Cn2nnnc2-3)cc1-n1cnc(C2CC2)c1 [Example 42, (S)-5-(4-cyclopropyl-1H-imidazol-1-yl)-2-fluoro-4-methyl-N-(6-methyl-5,6-dihydrobenzo[f]tetrazolo[1,5-d][1,4]oxazepin-8-yl)benzamide] | 16.8
11 | Cc1cc(F)c(C(=O)Nc2cccc3c2O[C@H](C)Cn2nnnc2-3)cc1-n1cnc(C2CC2)c1 [Example 43, (R)-5-(4-cyclopropyl-1H-imidazol-1-yl)-2-fluoro-4-methyl-N-(6-methyl-5,6-dihydrobenzo[f]tetrazolo[1,5-d][1,4]oxazepin-8-yl)benzamide] | 0.9
12 | O=C(Nc1cccc2c1OCCn1cnnc1-2)c1cc(-n2cnc(C3CC3)c2)c(N2CCOCC2)cn1 [Example 44, 4-(4-cyclopropyl-1H-imidazol-1-yl)-N-(5,6-dihydrobenzo[f][1,2,4]triazolo[4,3-d][1,4]oxazepin-8-yl)-5-morpholinopicolinamide] | 15.6
13 | Cc1cc(F)c(C(=O)Nc2cccc3c2OC2(CC2)Cn2cnnc2-3)cc1-n1cnc(C2CC2)c1 [Example 45, 5-(4-cyclopropyl-1H-imidazol-1-yl)-2-fluoro-4-methyl-N-(5H-spiro[benzo[f][1,2,4]triazolo[4,3-d][1,4]oxazepine-6,1′-cyclopropan]-8-yl)benzamide] | 5.3
14 | Cc1cc(F)c(C(=O)Nc2cccc3c2OC[C@H](C)n2cncc2-3)cc1-n1cnc(C2CC2)c1 [Example 46, (S)-5-(4-cyclopropyl-1H-imidazol-1-yl)-2-fluoro-4-methyl-N-(5-methyl-5,6-dihydrobenzo[f]imidazo[1,5-d][1,4]oxazepin-8-yl)benzamide] | 15.1
15 | Cc1cc(F)c(C(=O)Nc2cccc3c2OC[C@@H](C)n2cncc2-3)cc1-n1cnc(C2CC2)c1 [Example 47, (R)-5-(4-cyclopropyl-1H-imidazol-1-yl)-2-fluoro-4-methyl-N-(5-methyl-5,6-dihydrobenzo[f]imidazo[1,5-d][1,4]oxazepin-8-yl)benzamide] | 6.8
16 | Cc1cc(F)c(C(=O)Nc2cccc3c2OC[C@@H]([C@H](C)O)n2nnnc2-3)cc1-n1cnc(C2CC2)c1 [Example 48, 5-(4-cyclopropyl-1H-imidazol-1-yl)-2-fluoro-N—((S)-5-((S)-1-hydroxyethyl)-5,6-dihydrobenzo[f]tetrazolo[1,5-d][1,4]oxazepin-8-yl)-4-methylbenzamide] | 5.1
17 | O=C(Nc1cccc2c1OCCn1nnnc1-2)c1cc(-n2cnc(C3CC3)c2)ccn1 [Example 50, 4-(4-cyclopropyl-1H-imidazol-1-yl)-N-(5,6-dihydrobenzo[f]tetrazolo[1,5-d][1,4]oxazepin-8-yl)picolinamide] | 3.9
18 | Cc1cc(F)c(C(=O)Nc2cccc3c2OCCn2cnc(C)c2-3)cc1-n1cnc(C2CC2)c1 [Example 51, 5-(4-cyclopropyl-1H-imidazol-1-yl)-2-fluoro-4-methyl-N-(1-methyl-5,6-dihydrobenzo[f]imidazo[1,5-d][1,4]oxazepin-8-yl)benzamide] | 307
19 | C[C@@H]1Cn2cnnc2-c2cccc(NC(=O)c3cc(-n4cnc(C5CC5)c4)ccn3)c2O1 [Example 52, (R)-4-(4-cyclopropyl-1H-imidazol-1-yl)-N-(6-methyl-5,6-dihydrobenzo[f][1,2,4]triazolo[4,3-d][1,4]oxazepin-8-yl)picolinamide] | 5.9
20 | Cc1cc(F)c(C(=O)Nc2cccc3c2OC[C@@H]([C@@H](C)O)n2nnnc2-3)cc1-n1cnc(C2CC2)c1 [Example 53, 5-(4-cyclopropyl-1H-imidazol-1-yl)-2-fluoro-N—((S)-5-((R)-1-hydroxyethyl)-5,6-dihydrobenzo[f]tetrazolo[1,5-d][1,4]oxazepin-8-yl)-4-methylbenzamide] | 6.4
21 | CN1CCN(c2cnc(C(=O)Nc3cccc4c3OCCn3nnnc3-4)cc2-n2cnc(C3CC3)c2)CC1 [Example 54, 4-(4-cyclopropyl-1H-imidazol-1-yl)-N-(5,6-dihydrobenzo[f]tetrazolo[1,5-d][1,4]oxazepin-8-yl)-5-(4-methylpiperazin-1-yl)picolinamide] | 5.9
22 | C[C@@H]1CN(c2cnc(C(=O)Nc3cccc4c3OCCn3nnnc3-4)cc2-n2cnc(C3CC3)c2)CCO1 [Example 55, (R)-4-(4-cyclopropyl-1H-imidazol-1-yl)-N-(5,6-dihydrobenzo[f]tetrazolo[1,5-d][1,4]oxazepin-8-yl)-5-(2-methylmorpholino)picolinamide] | 2.1
23 | O=C(Nc1cccc2c1OCCn1cnnc1-2)c1cc(-n2cnc(C3CC3)c2)ccn1 [Example 56, 4-(4-cyclopropyl-1H-imidazol-1-yl)-N-(5,6-dihydrobenzo[f][1,2,4]triazolo[4,3-d][1,4]oxazepin-8-yl)picolinamide] | 35.2
24 | O=C(Nc1cccc2c1OCCn1nnnc1-2)c1cc(-n2cnc(C3CC3)c2)c(N2CC[C@@H](O)C2)cn1 [Example 57, (R)-4-(4-cyclopropyl-1H-imidazol-1-yl)-N-(5,6-dihydrobenzo[f]tetrazolo[1,5-d][1,4]oxazepin-8-yl)-5-(3-hydroxypyrrolidin-1-yl)picolinamide] | 4.7
25 | O=C(Nc1cccc2c1OCCn1nnnc1-2)c1cc(-n2cnc(C3CC3)c2)c(N2CCC2)cn1 [Example 58, 5-(azetidin-1-yl)-4-(4-cyclopropyl-1H-imidazol-1-yl)-N-(5,6-dihydrobenzo[f]tetrazolo[1,5-d][1,4]oxazepin-8-yl)picolinamide] | 3.2
26 | Cc1cc(F)c(C(=O)Nc2cccc3c2OC2(CC2)Cn2nnnc2-3)cc1-n1cnc(C2CC2)c1 [Example 59, 5-(4-cyclopropyl-1H-imidazol-1-yl)-2-fluoro-4-methyl-N-(5H-spiro[benzo[f]tetrazolo[1,5-d][1,4]oxazepine-6,1′-cyclopropan]-8-yl)benzamide] | 4.2
27 | CN(C)c1cnc(C(=O)Nc2cccc3c2OCCn2nnnc2-3)cc1-n1cnc(C2CC2)c1 [Example 60, 4-(4-cyclopropyl-1H-imidazol-1-yl)-N-(5,6-dihydrobenzo[f]tetrazolo[1,5-d][1,4]oxazepin-8-yl)-5-(dimethylamino)picolinamide] | 6.9
28 | O=C(Nc1cccc2c1OCCn1nnnc1-2)c1cc(-n2cnc(C3CC3)c2)c(N2CC[C@H](O)C2)cn1 [Example 61, (S)-4-(4-cyclopropyl-1H-imidazol-1-yl)-N-(5,6-dihydrobenzo[f]tetrazolo[1,5-d][1,4]oxazepin-8-yl)-5-(3-hydroxypyrrolidin-1-yl)picolinamide] | 3.5

From patent US10919911B2, “Tricyclic ASK1 inhibitors” (Terns, Inc., priority 2018, dated 2021)
